The record followed here is ChEMBL document CHEMBL1201862, “PubChem BioAssay data set” (2004).

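Growth conditions: 96-well plates. Treatment: test compound, 48 hours, 5 concentrations. Analysis: linear interpolation between bracketing concentrations; unreached endpoints set to highest concentration. The concentration for 50% growth inhibition is given as GI50.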 Activity calls are given as the source filed them. Rule as the data show it: active = GI50 up to about 1.1 µM and inactive = higher.

Common to all, as to assay: NCI-60 cell line screen, 48 h
Test [1] relates to ACHN.
For test [2], the system named is HOP-92.
The test system of test [3] is K562.
Test [4] deals with KM12.
For test [5], the system named is MDA-N.
Test [6] concerns NCI-H23.
Test [7] concerns NCI-H522.
Test [8] deals with NCI/ADR-RES.
Test [9] has as its system OVCAR-4.
The subject of test [10] is OVCAR-8.
For test [11], the system named is PC-3.
In test [12] the test system is SF-539.
Test [13] deals with SK-MEL-2.
Test [14] has as its system SK-MEL-5.
The test system of test [15] is SN12C.
Test [16] concerns SNB-75.
Test [17] concerns SW-620.
Test [18] concerns UACC-257.
The subject of test [19] is UACC-62.
For test [20], the system named is UO-31.

Take `CCC/C(Cl)=N\OC(=O)Nc1ccc(F)c([N+](=O)[O-])c1`: the GI50 in test [1] is 4.97 µM (inactive); in test [2], 15 µM (inactive); in [3] it was 5.32 µM (inactive); in [4], 16.7 µM (inactive); in test [5], 21.1 µM (inactive); in test [6], 12.9 µM (inactive). The GI50 is 1.79 µM (inactive) in [7]; 17.9 µM (inactive) in test [8]; 15.6 µM (inactive) in test [9]; 17.5 µM (inactive) in test [10]; 15.2 µM (inactive) in [11]; 24 µM (inactive) in test [12]. Besides, the GI50 in [13] is 14.3 µM (inactive); in test [14] it was 16.7 µM (inactive); in test [15] it was 27.2 µM (inactive); in test [16] it was 17.6 µM (inactive); in test [17], 4.8 µM (inactive); in test [18], 17.3 µM (inactive). Also, the GI50 in test [19] is 18.7 µM (inactive); in [20], 13.7 µM (inactive).
`COc1cc2cc(C(=O)N3CC(CCl)c4ccc(N(C)C)cc43)[nH]c2c(OC)c1OC` (configuration not stated): the GI50 in [1] is 0.0199 µM (active); in test [2], 0.0861 µM (active); in [3], 0.0675 µM (active); in test [4], 0.127 µM (active); in test [5] it was 0.185 µM (active); in [6], 0.0303 µM (active). Moreover, the GI50 in test [7] was 0.0127 µM (active); in test [8] it was 0.0449 µM (active); in [9], 0.124 µM (active); in [10] it was 0.0989 µM (active); in test [11], 0.0676 µM (active); in test [12], 0.0559 µM (active). Besides, the GI50 is 0.063 µM (active) in test [13]; 0.131 µM (active) in test [14]; 0.198 µM (active) in test [15]; 0.29 µM (active) in [16]; 0.12 µM (active) in test [17]; 0.139 µM (active) in test [18]. Also, the GI50 in test [19] was 0.0592 µM (active); in test [20] it was 0.0381 µM (active).
With `OC(CC(CC(O)(C(F)(F)F)C(F)(F)F)=NN=C(CC(O)(C(F)(F)F)C(F)(F)F)CC(O)(C(F)(F)F)C(F)(F)F)(C(F)(F)F)C(F)(F)F`, the GI50 in test [1], in [2], in test [3], in [4], in [5] and in test [6] was > 10 µM (inactive) throughout. Besides, the GI50 in test [7], in [8], in test [9], in test [10], in test [11] and in test [12] was > 10 µM (inactive) throughout. In addition, the GI50 in [13], in test [14], in test [15], in test [16], in [17] and in test [18] was > 10 µM (inactive) throughout. In test [19], the GI50 is > 10 µM (inactive).
For `COc1cc2c(cc1OC)C1CCc3ccccc3CN1CC2` (configuration not stated), the GI50 in [1], in test [2], in test [3], in test [4], in [5] and in [6] was > 100 µM (inactive) throughout. Further, the GI50 in [7], in test [8], in [9], in test [10], in test [11] and in test [12] was > 100 µM (inactive) each time. Besides, the GI50 in test [13], in test [14], in test [15], in test [16], in test [17] and in [18] was > 100 µM (inactive) each time. The GI50 in test [19] was > 100 µM (inactive).
In the case of `CCCCC1=C(C(=O)N2CCOCC2)C2(OCCO2)C1=O`, the GI50 in test [1] is 17.4 µM (inactive); in test [2], 23.1 µM (inactive); in test [4], 20.4 µM (inactive); in [5] it was 21.4 µM (inactive); in test [6] it was 18.3 µM (inactive); in test [7], 15.7 µM (inactive). Also, the GI50 is 22.2 µM (inactive) in [8]; 23.1 µM (inactive) in test [9]; 23.2 µM (inactive) in test [10]; 31.8 µM (inactive) in test [11]; 23 µM (inactive) in [12]; 25.1 µM (inactive) in [13]. The GI50 in test [14] is 16.5 µM (inactive); in test [15] it was 13.5 µM (inactive); in [16] it was 43.5 µM (inactive); in [17] it was 27.3 µM (inactive); in test [18], 28.9 µM (inactive); in test [19], 34.9 µM (inactive). Besides, the GI50 in test [20] was 15.5 µM (inactive).
For the compound `C=C(Br)C(Br)(CCl)CCC(Cl)C(C)C.C=C(Cl)C(Br)(CCl)CCC(Cl)C(C)C` (configuration not stated), the GI50 in test [1] was 1.74 µM (inactive); in [2], 1.87 µM (inactive); in [3] it was 0.684 µM (active); in test [4], 1.83 µM (inactive); in [5], 1.71 µM (inactive); in [6] it was 1.79 µM (inactive). Moreover, the GI50 is 1.35 µM (inactive) in test [7]; 1.94 µM (inactive) in test [8]; 1.94 µM (inactive) in [9]; 2.91 µM (inactive) in test [11]; 1.94 µM (inactive) in test [12]; 1.47 µM (inactive) in test [13]. Also, the GI50 in test [14] is 1.82 µM (inactive); in test [15] it was 1.66 µM (inactive); in test [16], 0.889 µM (active); in [17], 1.53 µM (inactive); in test [18], 1.67 µM (inactive); in test [19], 1.31 µM (inactive). Also, the GI50 in test [20] is 1.63 µM (inactive).
For the compound `Nc1nc(Cl)cc(NCC2(CO)CC=CC2)n1`, the GI50 is > 100 µM (inactive) in test [1]; > 100 µM (inactive) in test [2]; > 100 µM (inactive) in test [3]; > 100 µM (inactive) in test [4]; > 100 µM (inactive) in [5]; 68.7 µM (inactive) in test [7]. In addition, the GI50 in test [8] was > 100 µM (inactive); in test [9] it was 80 µM (inactive); in test [10], 79.8 µM (inactive); in test [11], > 100 µM (inactive); in test [12], > 100 µM (inactive); in test [13], > 100 µM (inactive). Moreover, the GI50 is 46.3 µM (inactive) in test [14]; > 100 µM (inactive) in test [15]; > 100 µM (inactive) in [16]; > 100 µM (inactive) in [17]; > 100 µM (inactive) in test [18]; > 100 µM (inactive) in test [19]. Further, the GI50 in test [20] is > 100 µM (inactive).
With `Cc1ccc([N+](=O)[O-])cc1S(=O)(=O)Nc1ccc(C2=NN(C(=O)c3ccccc3)C(c3ccccc3O)C2)cc1` (configuration not stated), the GI50 in test [1] is 15.7 µM (inactive); in [2], 12 µM (inactive); in [3], 15.3 µM (inactive); in [4], 28.6 µM (inactive); in [5], 21.5 µM (inactive); in test [6], 17.1 µM (inactive). The GI50 was 12.6 µM (inactive) in [7]; 27 µM (inactive) in [8]; 15.4 µM (inactive) in test [9]; 13.9 µM (inactive) in [10]; 13.2 µM (inactive) in [11]; 17.3 µM (inactive) in test [12]. Moreover, the GI50 was 16.7 µM (inactive) in [13]; 15.8 µM (inactive) in test [14]; 13.5 µM (inactive) in [15]; 17.1 µM (inactive) in [16]; 30.9 µM (inactive) in test [17]; 17.3 µM (inactive) in test [18]. Besides, the GI50 in [20] is 16.6 µM (inactive).
Take `CC(C)(C)[Si](C)(C)OCc1cccc(OCCOc2cccc(CO[Si](C)(C)C(C)(C)C)c2[N+](=O)[O-])c1[N+](=O)[O-]`: the GI50 in test [1], in [2], in test [4], in [5], in test [6] and in [7] was > 100 µM (inactive) in each case. In addition, the GI50 in test [8], in test [9], in test [10], in test [11], in [12] and in test [13] was > 100 µM (inactive) each time. For the same compound, the GI50 in [14], in test [15], in test [16], in test [17], in test [18] and in test [19] was > 100 µM (inactive) each time. In test [20], the GI50 is > 100 µM (inactive).
As for `C[C@]12CCC(=O)C=C1CC[C@@H]1[C@@H]2CC[C@]2(C)C(=O)/C(=C/c3ccc([N+](=O)[O-])cc3)C[C@@H]12`, the GI50 was 2.36 µM (inactive) in test [1]; > 100 µM (inactive) in test [2]; 3.35 µM (inactive) in test [3]; 6.93 µM (inactive) in test [4]; 6.31 µM (inactive) in test [5]; 27.8 µM (inactive) in test [6]. Besides, the GI50 is 4.66 µM (inactive) in test [7]; 5.85 µM (inactive) in test [8]; 45.8 µM (inactive) in test [10]; 7.87 µM (inactive) in test [11]; 79.3 µM (inactive) in test [12]; 62.5 µM (inactive) in test [13]. For the same compound, the GI50 is 3.47 µM (inactive) in [14]; 46.3 µM (inactive) in test [15]; 42 µM (inactive) in [16]; > 100 µM (inactive) in [17]; 6.59 µM (inactive) in test [18]; 3.36 µM (inactive) in test [19]. For the same compound, the GI50 in test [20] was 3.45 µM (inactive).
